{
  "source": "patent US20130288982A1",
  "about": "“THERAPEUTIC AGENT FOR PULMONARY SMALL CELL CARCINOMA” (TOKYO WOMEN'S MEDICAL UNIVERSITY, priority 2009, published 2013)",
  "key": {"[1]": {"system": "GAPDH mRNA in RERF-LC-MA cell", "assay": "GAPDH mRNA expression in cancer cells by qPCR", "assay_type": "cell-based, human", "conditions": "RERF-LC-MA cell (only in this cancer cell line), 24 hours after addition", "procedure": "(§1) The peptides were added to the cancer cells and osteoclasts to determine a change in the expression of each molecular group resulting from the interaction between the peptide and the cancer cells or between the peptide and osteoclasts by confirming the expression of mRNA using quantitative polymerase chain reaction (qPCR).\nAs the cancer cells, those as shown in Example 1 were used.\n(§2) The cancer cells and the osteoclasts were separately inoculated into a 6-well plate at a density of 1×10^5 to 2×10^5 cells per well. Twenty-four hours later, the medium was changed to D-MEM (1% FCS, 2 mM L-glu). Another 24 hours later, the medium was changed, and at the same time the peptide A or the control was added. After 24 hours, the cells were collected and extraction of the RNA was conducted."}, "[2]": {"system": "human breast cancer cell line MCF-7", "assay": "Inhibition of proliferation of cancer cells (XTT based Cell Proliferation Kit), MCF-7", "conditions": "peptide added, incubation at 37° C. for three days; data not shown", "procedure": "(§3) The human pulmonary small cell carcinoma cell line RERF-LC-MA, the human prostate cancer cell line PC-3, and the human breast cancer cell line MCF-7 were used as the cancer cells.\n(§4) A 96-well plate was inoculated with the above-mentioned cells at a density of 0.6×10^3 to 1.0×10^3 cells per well, and then cultured at 37° C. for three days. Then, cell proliferation was quantified using the Cell Proliferation Kit (XTT based).\n(§5) Next, the above-mentioned peptides were separately added to the culture system at concentrations of 0 μg/mL, 1 μg/mL, 5 μg/mL and 10 μg/m, followed by incubation at 37° C. for three days. After completion of the incubation, the number of cancer cells was counted."}, "[3]": {"system": "human pulmonary small cell carcinoma cell line RERF-LC-MA", "assay": "Inhibition of proliferation of cancer cells (XTT based Cell Proliferation Kit), RERF-LC-MA", "conditions": "peptide added at 5 μg/mL or 10 μg/m, incubation at 37° C. for three days; p=0.031 vs scrambled peptide control", "procedure": "as §3, §4, §5"}, "[4]": {"system": "human prostate cancer cell line PC-3", "assay": "Inhibition of proliferation of cancer cells (XTT based Cell Proliferation Kit), PC-3", "conditions": "peptide added, incubation at 37° C. for three days; data not shown", "procedure": "as §3, §4, §5"}, "[5]": {"system": "mRNA of the VEGFR1, RECK, MMP9 and MMP14 in the osteoclasts", "assay": "mRNA expression of molecule groups in osteoclasts by qPCR", "assay_type": "cell-based", "conditions": "peptide A vs scrambled peptide, 24 hours after addition", "procedure": "as §1\nThe following molecule groups were used which are expressed in the cancer cells and/or osteoclasts as reported in Yoko Morioka et al.: “The roles of MMPs and RECK in cancer progression”, Cell Technology. Vol. 28, No. 7, 659-679 (2009).\nas §2"}},
  "note": "No end group written: not given here.",
  "data": [
    {"sequence": "GQNGSTPDGSTHFPSWEMAANEPLKTHRE [peptide A, 29-mer peptide derived from the TCTA protein, containing extracellular domain GQN]", "values": [
      {"measurement": "GAPDH mRNA expression", "setting": "[1]", "result": "reduced"},
      {"measurement": "inhibitory effect on proliferation of the MCF-7 cells", "setting": "[2]", "result": "almost no inhibitory effect"},
      {"measurement": "proliferation of the RERF-LC-MA cells (reduced to)", "setting": "[3]", "result": "about 85%"},
      {"measurement": "inhibitory effect on proliferation of the PC-3 cells", "setting": "[4]", "result": "almost no inhibitory effect"},
      {"measurement": "expression of mRNA of MMP9 in the osteoclasts", "setting": "[5]", "result": "no significant difference"},
      {"measurement": "expression of mRNA of MMP14 in the osteoclasts", "setting": "[5]", "result": "no significant difference"},
      {"measurement": "expression of mRNA of RECK in the osteoclasts", "setting": "[5]", "result": "no significant difference"},
      {"measurement": "expression of mRNA of VEGFR1 in the osteoclasts", "setting": "[5]", "result": "no significant difference"}
    ]}
  ]
}
